Columns and labels:
[1] = test system: LMWH (Enoxaparin); assay: Factor Xa and IIa reversal after LMWH Enoxaparin, canine study; assay type: in vivo; details: dogs, 3 min
Protocol: Similar studies were conducted to assess the ability of the protamine-like peptide analogs described in this section to reverse the anticoagulation effects of the LMWH, Enoxaparin. FIG. 5a through FIG. 5d are graphical representations of LMWH anticoagulation activities achieved by n-protamine (Protamine [+21]), and compounds [+18BE], [+18KDEL], and [+18RGD] plotted as a percent of reversal against time in minutes. […] Referring to FIG. 5c, compound [+18RGD] dramatically outperforms n-protamine in reversing the heparin antifactor Xa activity of Enoxaparin.

[2] = Hemodynamic studies and total toxicity score after LMWH reversal, canine study; details: dogs, Logiparin
Protocol: (§1) Hemodynamic studies were conducted by measuring mean arterial pressure (MAP) in mm Mercury, maximum percent changes in cardiac output (CO) and systemic oxygen consumption (VO2), and heart rate (HR) in beats per minute. Measurements and calculations were made at baseline, before LMWH administration, 3 minutes before reversal, every 30 seconds for 5 minutes after reversal, and at 10, 20, and 30 minutes after reversal.
Total toxicity scores (TTS) were developed that reflected maximum declines in each of four parameters (MAP, CO, VO2 and HR) over the first 5 minutes after reversal. The maximum changes occurring in an individual dog over the first 5 minutes were divided by the standard deviation derived from the entire group of tested animals and the four scores were added, resulting in a TTS for each individual dog. The TTS values for each dog were then summed to obtain an average TTS and SD for each peptide studied. The more negative the value of TTS, the more toxic the compound.

[3] = Platelet and white cell counts after standard heparin reversal, canine study; assay type: in vivo; details: dogs, 3 minutes post-reversal, resolved by about 30 minutes
Protocol: Anticoagulation reversal was assessed by a number of standard coagulation tests performed upon samples of venous blood: activated clotting time (ACT), prothrombin time (PT), activated partial thromboplastin time (aPTT), thrombin clotting time (TCT), heparin concentration by assay for FXa inhibitory activity (FXa), white cell count (WBC), and platelet counts (PLT). Measurements were made 3 minutes prior to heparin reversal (baseline) and 3 minutes and 30 minutes post-administration of the heparin reversal agent. The "Heparin" row sets forth the observed reversal as a consequence of expected heparin metabolism or degradation alone.

[4] = Hemodynamic studies and total toxicity score after standard heparin reversal, canine study; details: dogs
Protocol: As used hereinafter, the peptides will be identified by their total cationic charge value, e.g., [+8], [+16], etc.
Hemodynamic studies were conducted by measuring mean arterial pressure (MAP), heart rate (HR), and maximum percent changes in cardiac output (CO) and systemic oxygen consumption (VO2).
Total toxicity scores (TTS) were developed that reflected maximum declines in each of four parameters (MAP, CO, VO2 and HR) over the first 5 minutes after reversal, the latter being the time of expected greatest adverse hemodynamic effect. The maximum changes occurring in an individual dog over the first 5 minutes were divided by the standard deviation derived from the entire group of tested animals and the four scores were added, resulting in a TTS for each individual dog. The TTS values for each dog were then summed to obtain an average TTS and SD for each peptide studied.

[5] = test system: LMWH (LHN-1, Logiparin); assay: Percent reversal of LMWH anticoagulation, agents administered at different rates, canine study; assay type: in vivo, dogs
Protocol: Anticoagulation reversal was assessed by a number of standard coagulation tests performed upon samples of venous blood in the manner described hereinabove. Measurements were made 3 minutes prior to heparin reversal (baseline) and 3 minutes, 10 minutes, and 30 minutes post-administration of the heparin reversal agent.

[6] = Maximum hemodynamic changes and total toxicity score after Enoxaparin reversal, canine study; details: dogs, agent over 10 seconds
Protocol: (§2) Seven female dogs (mean weight 15-20 kg) received intravenous standard, unfractionated heparin (150 IU/kg IV) or LMWH (Enoxaparin, Rhone-Poulac, France; 100 IU/kg factor Xa activity) followed by reversal with commercial salmine protamine (n-protamine purchased from Eli Lilly, Indianapolis, Ind., 1.5 mg/kg (100 IU/mg) IV) or an anticoagulation-reversing agent which is a protamine-like peptide variant identified hereinbelow. In these studies, the anticoagulation-reversing agents were administered over a 10 second interval to maximize the hemodynamic effects.

[7] = test system: LMWH (LHN-1, Logiparin); assay: Percent reversal of low molecular weight heparin anticoagulation, in vivo canine study, coagulation tests; parameters: species or system dogs; details: for aPTT reversal: Logiparin
Protocol: Anticoagulation reversal was assessed by a number of standard coagulation tests performed upon samples of venous blood: activated clotting time (ACT), heparin concentration by assay for FXa inhibitory activity (FXa), thrombin clotting time (TCT), and heparin concentration by assay for FIIa inhibitory activity (FIIa). Measurements were made 3 minutes prior to heparin reversal (baseline) and 3 minutes, 10 minutes, and 30 minutes post-administration of the heparin reversal agent. […] The coagulation data were corrected for naturally occurring metabolism.

[8] = clinical use; cited from earlier work
[9] = Percent change in platelet count after Enoxaparin reversal, canine study; assay type: in vivo; details: dogs, agent over 10 seconds
Protocol: as §2

[10] = Maximum hemodynamic changes and total toxicity score after standard heparin reversal, cell adhesion ligand analogs, canine study; details: dogs, agent over 10 seconds
Protocol: In these studies, the anticoagulation-reversing agents were administered over a 10 second interval to maximize the hemodynamic effects.
Hemodynamic studies were conducted by measuring mean blood pressure (Mean BP) in mm Mercury, maximum percent changes in cardiac output (CO) and systemic oxygen consumption (VO2), and heart rate (HR) in beats per minute. Measurements and calculations were made at baseline, before administration of standard, unfractionated heparin, 3 minutes before reversal, every 30 seconds for 5 minutes after reversal.
Total toxicity scores (TTS) were developed in accordance with the method described hereinabove that reflected maximum declines in each of four parameters (MAP, CO, VO2 and HR) over the first 5 minutes after reversal.

[11] = test system: standard, unfractionated heparin; assay: Factor Xa and IIa reversal after standard heparin, cell adhesion ligand analogs, canine study; assay type: in vivo; details: dogs, 3 min post administration
Protocol: Anticoagulation reversal was assessed by a number of standard coagulation tests performed upon samples of venous blood in the manner described hereinabove. Measurements were made 3 minutes prior to heparin reversal (baseline) and 3 minutes, 10 minutes, and 30 minutes post-administration of the heparin reversal agent. […] Referring to FIGS. 4a through 4d, compound [+18RGD] performs as well, or better, than n-protamine in the standard coagulation tests performed in these studies.

[12] = Hemodynamic studies and total toxicity score after standard heparin reversal at different rates, dogs
Protocol: Hemodynamic studies were conducted by measuring mean arterial pressure (MAP) in mm Mercury, maximum percent changes in cardiac output (CO) and systemic oxygen consumption (VO2), and heart rate (HR) in beats per minute. Measurements and calculations were made at baseline, before LMWH administration, 3 minutes before reversal, every 30 seconds for 5 minutes after reversal.
(§3) TTS were developed that reflected maximum declines in each of four parameters (MAP, CO, VO2 and HR) over the first 5 minutes after reversal in the same manner as described hereinabove.

[13] = Hemodynamic studies and total toxicity score after LMWH reversal at different rates, canine study; details: dogs, Logiparin
Protocol: The anticoagulation-reversing agents were administered rapidly over 10 seconds to maximize hemodynamic effects or more slowly over a 3 minute interval. Changes in LMWH anticoagulation occurring from metabolism alone were determined in a separate group of dogs not given any reversal agent.
as §1, §3

[14] = administered over 10 sec, 3 min
[15] = administered over 10 sec, 10 min
[16] = administered over 10 sec, 30 min
[17] = administered over 3 min, 10 min
[18] = administered over 3 min, 30 min

Substance: PR4 S3 RPVR5 PRVSR6 G2 R4 [Protamine [+21], reference compound]
- IIa Reversal [1]: 98%
- Xa Reversal [1]: 30%
- maximum mean increase in pulmonary artery diastolic (PAD) pressure [2]: +10 mm Mercury
- maximum mean increase in pulmonary artery systolic (PAS) pressure [2]: +10 mm Mercury
- ΔHR [2]: -18 beats per minute
- ΔMAP [2]: -32 mm Mercury
- Total Toxicity Score ([2]; first 5 minutes after reversal, 1:1 peptide to LMWH): -7.6 ± 4.8
- ΔCO ([2]; maximum percent change): -32%
- ΔVO2 ([2]; maximum percent change): -26%
- platelet counts [3]: thrombocytopenia
- ΔHR [4]: -29
- ΔMAP ([4]; average maximum decline in first five minutes after peptide administration): -34
- average total toxicity score (TTS±SD) ([4]; first 5 minutes after reversal, more negative = more toxic): -7.0±5.2
- ΔCO ([4]; maximum percent change): -38%
- ΔVO2 ([4]; maximum percent change): -35%
- Percent reversal of LMWH anticoagulation, FNa [5, 14]: 96%
- Percent reversal of LMWH anticoagulation, FXa [5, 14]: 63%
- Percent reversal of LMWH anticoagulation, TCT [5, 14]: 99%
- Percent reversal of LMWH anticoagulation, ACT [5, 15]: 83%
- Percent reversal of LMWH anticoagulation, FXa [5, 15]: 45%
- Percent reversal of LMWH anticoagulation, TCT [5, 15]: 98%
- Percent reversal of LMWH anticoagulation, ACT [5, 16]: 78%
- Percent reversal of LMWH anticoagulation, FNa [5, 16]: 86%
- Percent reversal of LMWH anticoagulation, TCT [5, 16]: 96%
- Percent reversal of LMWH anticoagulation, FNa ([5]; administered over 3 min, 3 min): 99%
- Percent reversal of LMWH anticoagulation, FXa ([5]; administered over 3 min, 3 min): 68%
- Percent reversal of LMWH anticoagulation, TCT ([5]; administered over 3 min, 3 min): 100%
- Percent reversal of LMWH anticoagulation, ACT [5, 17]: 87%
- Percent reversal of LMWH anticoagulation, FNa [5, 17]: 98%
- Percent reversal of LMWH anticoagulation, FXa [5, 17]: 53%
- Percent reversal of LMWH anticoagulation, TCT [5, 17]: 99%
- Percent reversal of LMWH anticoagulation, ACT [5, 18]: 80%
- Percent reversal of LMWH anticoagulation, FNa [5, 18]: 92%
- Percent reversal of LMWH anticoagulation, FXa [5, 18]: 45%
- Percent reversal of LMWH anticoagulation, TCT [5, 18]: 98%
- Percent reversal of LMWH anticoagulation, ACT ([5]; dogs, Logiparin, agent administered over 10 sec, 3 min post-administration): 96%
- Percent reversal of LMWH anticoagulation, ACT ([5]; dogs, Logiparin, agent administered over 3 min, 3 min post-administration): 99%
- Maximum hemodynamic change, Mean BP ([6]; Enoxaparin 100 IU/kg, 5 minutes): -7 mm Mercury
- Maximum hemodynamic change, CO ([6]; Enoxaparin, 5 minutes): -23%
- Maximum hemodynamic change, HR ([6]; Enoxaparin, 5 minutes): -17 beats/min
- Maximum hemodynamic change, VO2 ([6]; Enoxaparin, 5 minutes): -23%
- Total Toxicity Score (TTS) ([6]; Enoxaparin, listed as Prot[+21]): -5.77
- Total Toxicity Score (TTS) ([6]; Enoxaparin, listed as [+21] n-protamine): -5.77 ± 3.46
- aPTT reversal ([7]; dogs, 3 minute measurement): 50%
- aPTT reversal ([7]; dogs, 10 minute measurement): 83%
- aPTT reversal ([7]; dogs, 30 minute measurement): 78%
- Percent reversal of LMWH anticoagulation, ACT ([7]; dogs, Logiparin 150 IU/kg, agent 1.5 mg/kg IV after 30 min, 3 min post-administration, corrected for metabolism): 99%
- Percent reversal of LMWH anticoagulation, FNa ([7]; same study, 3 min): 99%
- Percent reversal of LMWH anticoagulation, FXa ([7]; same study, 3 min): 63%
- Percent reversal of LMWH anticoagulation, TCT ([7]; same study, 3 min): 100%
- Percent reversal of LMWH anticoagulation, ACT ([7]; same study, 10 min): 88%
- Percent reversal of LMWH anticoagulation, FXa ([7]; same study, 10 min): 45%
- Percent reversal of LMWH anticoagulation, TCT ([7]; same study, 10 min): 98%
- Percent reversal of LMWH anticoagulation, ACT ([7]; same study, 30 min): 82%
- Percent reversal of LMWH anticoagulation, FNa ([7]; same study, 30 min): 86%
- Percent reversal of LMWH anticoagulation, FXa ([7]; same study, 30 min): 44%
- Percent reversal of LMWH anticoagulation, TCT ([7]; same study, 30 min): 96%
- cases with significant systemic arterial hypertension and pulmonary artery hypertension [8]: about 4%
- Platelet (percent change in platelet count) [9]: -40%
- Maximum hemodynamic change, Mean BP ([10]; standard heparin 150 IU/kg IV, 5 minutes): -31 mm Mercury
- Maximum hemodynamic change, CO ([10]; standard heparin, 5 minutes): -36%
- Maximum hemodynamic change, HR ([10]; standard heparin, 5 minutes): -27 beats/min
- Maximum hemodynamic change, VO2 ([10]; standard heparin, 5 minutes): -32%
- Total Toxicity Score ([10]; standard unfractionated heparin): -8.02 ± 5.20
- IIa Reversal [11]: 98%
- Xa Reversal [11]: 99%
- Total Toxicity Score ([12]; administered over 10 sec): -7.1 ± 4.63
- Total Toxicity Score ([12]; administered over 3 min): -5.66 ± 4.04
- Total Toxicity Score ([13]; administered over 10 sec): -6.4 ± 3.8
- ΔCO ([13]; administered over 10 sec): -32%
- ΔHr ([13]; administered over 10 sec): -18 beats per minute
- ΔMAP ([13]; administered over 10 sec): -32 mm Mercury
- ΔVO2 ([13]; administered over 10 sec): -26%
- Total Toxicity Score ([13]; administered over 3 min): -7.2 ± 3.5
- ΔCO ([13]; administered over 3 min): -28%
- ΔHr ([13]; administered over 3 min): -36 beats per minute
- ΔMAP ([13]; administered over 3 min): -18 mm Mercury
- ΔVO2 ([13]; administered over 3 min): -23%

Source: patent US5919761A, “Peptides for heparin and low molecular weight heparin anticoagulation reversal” (The Board of Regents of the University of Michigan, priority 1995, dated 1999)
